Source: patent US20100120311A1, “METHOD FOR PROVIDING TEXTILES WITH DESENSITIZED SILVER COMPONENTS” (priority 2006, published 2010)

Assay: Visual assessment of discoloration on exposure to light
Conditions: benzotriazole up to 5 g/g of silver ions, hydroxylamine hydrochloride up to 3 g/g of silver ions, without pinacryptol yellow

c1ccc2[nH]nnc2c1 [benzotriazole]
suppression of discoloration of formulation and textile by stabilizer: not capable, in the concentration used, of permanently suppressing either the discoloration of the formulation itself or the discoloration of the textile

Cl.NO [hydroxylamine hydrochloride]
suppression of discoloration of formulation and textile by stabilizer: not capable, in the concentration used, of permanently suppressing either the discoloration of the formulation itself or the discoloration of the textile
